Activity calls are given as the source filed them. No cut-off for these calls is given here. Peptide text beside a SMILES is read from it.
Key:
Canis familiaris = assay: Vasodilatory activity in anesthetized dog assessed as effect on blood flow; assay type: functional, organism-based; settings: Canis lupus familiaris
Cavia porcellus = species: Cavia porcellus; assay: Vasodilatory activity in guinea pig trachea assessed as muscle relaxation; assay type: functional, tissue-based
Stomach = assay: Vasodilatory activity in rat stomach smooth muscle assessed as muscle relaxation; assay type: functional, tissue-based

Compound	Activity (Canis familiaris)	Activity (Cavia porcellus)	Activity (Stomach)
H-KQMAVKKYLNSILN-NH2	Active	–	–
H-AVKKYLNSILN-NH2	Active	Active	Active
COC(=O)[C@H](Cc1ccc(O)cc1)NC(=O)[C@H](CC(N)=O)NC(=O)[C@H](CC(=O)O)NC(=O)[C@@H](NC(=O)[C@H](Cc1ccccc1)NC(=O)[C@@H](NC(=O)[C@H](C)NC(=O)[C@H](CC(=O)O)NC(=O)[C@H](CO)NC(=O)[C@@H](N)Cc1cnc[nH]1)C(C)C)[C@@H](C)O (H-HSDAVFTDNY-OMe)	–	Active	Active
H-RKQMAVKKYLNSILN-NH2	inactive	–	–

Source: ChEMBL document CHEMBL3271952, “Synthesis and pharmacological properties of the N-terminal decapeptide of the vasoactive intestinal peptide (VIP)” (J Med Chem, 1977)
